{"source": "patent US4861778A", "about": "“2,3-dihydrophthalazine-1,4-diones” (priority 1986, dated 1989)", "key": {"[1]": {"system": "serum cholesterol and serum triglyceride", "experiment": "Hypolipidemic activity of 2,3-dihydrophthalazine-1,4-diones in normal male mice (Example 11, Table II)", "format": "in vivo, CF1 male mice", "conditions": "Mus musculus, ip, CF1 male mice, 20 mg/kg/day intraperitoneally", "method": "Hypolipidemic Activity of 2,3-Dihydrophthalazine-1,4-Diones in Normal Male Mice\nEach of the prepared compounds was administered intraperitoneally, in a dosage of 20 milligrams per kilogram of body weight per day, to a group of six CF1 male mice, each weighing approximately 25 grams, for 16 days. On Days 9 and 16 blood was obtained from each of the tested mice by tail vein bleeding. The blood serum so obtained was separated by centrifugation for three minutes. […] Serum triglyceride levels were obtained on Day 16 by use of the Bio-Dynamics/bm Triglyceride Kit.\nIn addition to the above-described treated mice, an untreated control group of six mice were similarly tested on Days 9 and 16 to determine their serum cholesterol and serum triglyceride blood levels."}, "[2]": {"system": "serum cholesterol and serum triglyceride", "experiment": "Hypolipidemic effect of Compound No. 1 in normal CF1 male mice, dose response (Example 12, Table III)", "format": "in vivo", "method": "The hypolipidemic effects of a preferred compound within the scope of the present invention, 2,3-dihydrophthalazine-1,4-dione (Compound No. 1), was tested in accordance with the procedure set forth in Example 11. However, in addition to testing normal CF1 male mice at 20 mg/kg/d ip, sets of six of these mice were treated with dosages of 10, 40 and 60 mg/kg/d. A set of six mice were again treated with a 1 percent aqueous solution of CMC, the carrier for the active agent, as a control.\n(§1) In Table III the results are reported as percent of serum cholesterol and serum triglyceride based on the concentration of these materials found in the control, the rats treated with the 1 percent aqueous solution of CMC."}, "[3]": {"system": "serum cholesterol and serum triglyceride", "experiment": "Hypolipidemic effect of Compound No. 1 in normal Sprague-Dawley male rats (Example 12, Table III)", "format": "in vivo", "conditions": "10 mg/kg/day orally", "method": "In addition, rats were treated with Compound No. 1. The rats used in the test were normal Sprague-Dawley male rats, each weighting approximately 350 grams. The rats, tested in groups of six, were orally administered 10 mg/kg/d of Compound 1 in an aqueous solution of 1 percent CMC. The treatment of 10 milligrams per kilogram of body weight per day continued for 14 days. On Days 7 and 14 blood was obtained from each of the rats by tail vein bleeding. The blood obtained was separated centrifugation for three minutes. Serum cholesterol and serum triglyceride blood levels were determined in accordance with the procedure of Example 1.\nas §1"}, "[4]": {"system": "plasma lipoprotein fractions", "experiment": "Determination of plasma lipoprotein fractions in rats (Example 13, Table IV)", "format": "in vivo, Sprague-Dawley male rats", "conditions": "10 mg/kg/d orally", "excerpt": "Determination of Plasma Lipoprotein Fractions in Rats\nSets of six normal Sprague-Dawley male rats, each weighing approximately 350 grams, were orally treated with 10 milligrams per kilogram of body weight per day of 2,3-dihydrophthalazine-1,4-dione (Comp. No. 1) by intubation needle. In addition, a set of six Sprague-Dawley male rats of approximately the same weight were similarly treated except that the administered drug was the inert carrier, the 1 percent aqueous solution of CMC.\nBlood was collected from all the rats participating in the test from the abdominal vein and lipoprotein fractions were obtained by the method of Hatch and Lees (Adv. Lipid Res., Vol. 6, 1 [1968]) and Havel et al. (J. Clin. Invest., Vol. 34, 1345 [1955]). Each of the fractions were analyzed for cholesterol in accordance with the Ness et al. test, for triglyceride level (Bio-Dynamic/bmc Triglyceride Kit), neutral lipids, in accordance with the test of Bragdon (J. Biol. Chem., Vol. 190, 513 [1951]), phospholipids, in accordance with the Stewart and Hendry procedure (Biochem. J., Vol. 29, 1683 [1935]) and protein levels, in accordance with the procedure of Lowry et al. (J. Biol. Chem., Vol. 193, 265 [1951])."}, "[5]": {"system": "serum cholesterol and serum triglycerides", "experiment": "Effect of Compound 1 on hyperlipidemic mice (Example 14)", "format": "in vivo, CF1 male mice", "conditions": "diet-induced hyperlipidemic CF1 mice, 20 mg/kg daily, 12 days", "method": "Effect of Compound 1 on Hyperlipidemic Mice\nA group of CF1 male mice were fed a diet resulting in induced hyperlipidemia.\nThese hyperlipidemic mice were treated for 12 days with Compound 1 (2,3-dihydrophthalazine-1,4-dione) at a daily dosage of 20 mg/kg. At the conclusion of this treatment regime the average serum cholesterol level of the hyperlipidemic mice was lowered to 221 mg percent, a 41 percent reduction."}}, "note": "Read-outs that look alike come from different tables or passages of the source.", "data": [{"smiles": "O=c1[nH][nH]c(=O)c2ccccc12", "note": "[Compound 1, 2,3-Dihydrophthalazine-1,4-Dione]", "values": [{"measurement": "response vs control in vivo at 20 mg/kg/day", "setting": "[1]; 216 h, Day 9, read-out: Serum Cholesterol Day 9, percent control ± standard deviation", "result": "53 ± 4", "unit": "%"}, {"measurement": "response vs control in vivo at 20 mg/kg/day", "setting": "[1]; 384 h, Day 16, read-out: Serum Cholesterol Day 16, percent control ± standard deviation", "result": "49 ± 5", "unit": "%"}, {"measurement": "response vs control in vivo at 20 mg/kg/day", "setting": "[1]; 384 h, Day 16, read-out: Serum Triglyceride Day 16, percent control ± standard deviation", "result": "57 ± 4", "unit": "%"}, {"measurement": "Cholesterol Day 9, % control ± standard deviation", "setting": "[2]; 10 mg/kg/day ip", "result": "88 ± 5", "unit": "% CONTROL"}, {"measurement": "Cholesterol Day 16, % control ± standard deviation", "setting": "[2]; 10 mg/kg/day ip", "result": "76 ± 7", "unit": "% CONTROL"}, {"measurement": "Triglyceride Day 16, % control ± standard deviation", "setting": "[2]; 10 mg/kg/day ip", "result": "67 ± 5", "unit": "% CONTROL"}, {"measurement": "Cholesterol Day 9, % control ± standard deviation", "setting": "[2]; 20 mg/kg/day ip", "result": "53 ± 4", "unit": "% CONTROL"}, {"measurement": "Cholesterol Day 16, % control ± standard deviation", "setting": "[2]; 20 mg/kg/day ip", "result": "49 ± 8", "unit": "% CONTROL"}, {"measurement": "Triglyceride Day 16, % control ± standard deviation", "setting": "[2]; 20 mg/kg/day ip", "result": "57 ± 4", "unit": "% CONTROL"}, {"measurement": "Cholesterol Day 9, % control ± standard deviation", "setting": "[2]; 40 mg/kg/day ip", "result": "71 ± 7", "unit": "% CONTROL"}, {"measurement": "Cholesterol Day 16, % control ± standard deviation", "setting": "[2]; 40 mg/kg/day ip", "result": "60 ± 6", "unit": "% CONTROL"}, {"measurement": "Triglyceride Day 16, % control ± standard deviation", "setting": "[2]; 40 mg/kg/day ip", "result": "44 ± 3", "unit": "% CONTROL"}, {"measurement": "Cholesterol Day 9, % control ± standard deviation", "setting": "[2]; 60 mg/kg/day ip", "result": "76 ± 8", "unit": "% CONTROL"}, {"measurement": "Cholesterol Day 16, % control ± standard deviation", "setting": "[2]; 60 mg/kg/day ip", "result": "55 ± 5", "unit": "% CONTROL"}, {"measurement": "Triglyceride Day 16, % control ± standard deviation", "setting": "[2]; 60 mg/kg/day ip", "result": "49 ± 5", "unit": "% CONTROL"}, {"measurement": "Cholesterol Day 7, % control ± standard deviation", "setting": "[3]; Day 7", "result": "75 ± 5", "unit": "% CONTROL"}, {"measurement": "Triglyceride Day 7, % control ± standard deviation", "setting": "[3]; Day 7", "result": "66 ± 6", "unit": "% CONTROL"}, {"measurement": "Cholesterol Day 14, % control ± standard deviation", "setting": "[3]; Day 14", "result": "68 ± 8", "unit": "% CONTROL"}, {"measurement": "Triglyceride Day 14, % control ± standard deviation", "setting": "[3]; Day 14", "result": "64 ± 5", "unit": "% CONTROL"}, {"measurement": "HDL cholesterol, percent control ± standard deviation", "setting": "[4]; HDL, column 1", "result": "107 ± 3", "unit": "PERCENT CONTROL"}, {"measurement": "HDL triglyceride, percent control ± standard deviation", "setting": "[4]; HDL, column 2", "result": "42 ± 4", "unit": "PERCENT CONTROL"}, {"measurement": "HDL neutral lipids, percent control ± standard deviation", "setting": "[4]; HDL, column 3", "result": "86 ± 3", "unit": "PERCENT CONTROL"}, {"measurement": "HDL phospholipids, percent control ± standard deviation", "setting": "[4]; HDL, column 4", "result": "42 ± 6", "unit": "PERCENT CONTROL"}, {"measurement": "HDL protein, percent control ± standard deviation", "setting": "[4]; HDL, column 5", "result": "93 ± 7", "unit": "PERCENT CONTROL"}, {"measurement": "LDL cholesterol, percent control ± standard deviation", "setting": "[4]; LDL, column 1", "result": "35 ± 6", "unit": "PERCENT CONTROL"}, {"measurement": "LDL triglyceride, percent control ± standard deviation", "setting": "[4]; LDL, column 2", "result": "94 ± 7", "unit": "PERCENT CONTROL"}, {"measurement": "LDL neutral lipids, percent control ± standard deviation", "setting": "[4]; LDL, column 3", "result": "88 ± 6", "unit": "PERCENT CONTROL"}, {"measurement": "LDL phospholipids, percent control ± standard deviation", "setting": "[4]; LDL, column 4", "result": "125 ± 7", "unit": "PERCENT CONTROL"}, {"measurement": "LDL protein, percent control ± standard deviation", "setting": "[4]; LDL, column 5", "result": "92 ± 8", "unit": "PERCENT CONTROL"}, {"measurement": "VLDL cholesterol, percent control ± standard deviation", "setting": "[4]; VLDL, column 1", "result": "30 ± 5", "unit": "PERCENT CONTROL"}, {"measurement": "VLDL triglyceride, percent control ± standard deviation", "setting": "[4]; VLDL, column 2", "result": "134 ± 10", "unit": "PERCENT CONTROL"}, {"measurement": "VLDL neutral lipids, percent control ± standard deviation", "setting": "[4]; VLDL, column 3", "result": "81 ± 3", "unit": "PERCENT CONTROL"}, {"measurement": "VLDL phospholipids, percent control ± standard deviation", "setting": "[4]; VLDL, column 4", "result": "91 ± 6", "unit": "PERCENT CONTROL"}, {"measurement": "VLDL protein, percent control ± standard deviation", "setting": "[4]; VLDL, column 5", "result": "103 ± 7", "unit": "PERCENT CONTROL"}, {"measurement": "Chylomicrons cholesterol, percent control ± standard deviation", "setting": "[4]; chylomicrons, column 1", "result": "82 ± 6", "unit": "PERCENT CONTROL"}, {"measurement": "Chylomicrons triglyceride, percent control ± standard deviation", "setting": "[4]; chylomicrons, column 2", "result": "85 ± 7", "unit": "PERCENT CONTROL"}, {"measurement": "Chylomicrons neutral lipids, percent control ± standard deviation", "setting": "[4]; chylomicrons, column 3", "result": "84 ± 8", "unit": "PERCENT CONTROL"}, {"measurement": "Chylomicrons phospholipids, percent control ± standard deviation", "setting": "[4]; chylomicrons, column 4", "result": "92 ± 7", "unit": "PERCENT CONTROL"}, {"measurement": "Chylomicrons protein, percent control ± standard deviation", "setting": "[4]; chylomicrons, column 5", "result": "102 ± 6", "unit": "PERCENT CONTROL"}, {"measurement": "reduction of serum cholesterol level", "setting": "[5]", "result": 41, "unit": "%"}, {"measurement": "reduction of serum triglycerides level", "setting": "[5]", "result": 56, "unit": "%"}, {"measurement": "average serum triglycerides level after treatment", "setting": "[5]; initial 367 mg/dl", "result": 161, "unit": "mg/dL"}, {"measurement": "average serum cholesterol level after treatment", "setting": "[5]; initial 375 mg percent", "result": 221, "unit": "mg percent"}]}]}
